The values that follow come from PMC7300217, “Surfactin Like Broad Spectrum Antimicrobial Lipopeptide Co-produced With Sublancin From Bacillus subtilis Strain A52: Dual Reservoir of Bioactives” (Frontiers in Microbiology, 2020).

In one data set the test system is E. coli MTCC 1610. Briefly: MIC, microtiter plate dilution assay. In kind it is cell-based, Escherichia coli. The conditions noted are these: 5 × 10^5 CFU/ml, 37°C, OD600 after 24 h, triplicate. As to the method:
The antimicrobial activity was tested by well diffusion assay as mentioned earlier ([Singh et al., 2014]). Strain A52 was grown for 24 h in 500 ml of nutrient broth (NB, Hi-media, India) using 1000 ml flask and subsequently cells were removed by centrifugation (10,000 rpm for 15 min at 4°C). Supernatant was filtered through 0.22 μm filter (Millipore, United States) to obtain cell-free fermented broth (CFB) that was used for antimicrobial assay (50 μl) against various indicator strains and the activity was measured as diameter of inhibition zone. […]
The minimum inhibitory concentration (MIC) of HPLC purified peptides was evaluated by using microtiter plate dilution assay. […] OD was measured at 600 nm after 24 and 48 h for bacteria and yeast, respectively, using ELISA microplate reader (Thermo, United States). MIC against phytopathogenic fungi was determined using 96-well microtiter plate assay ([Kaur et al., 2016]). […] The microplates were incubated at 25°C and readings were recorded at 600 nm after 48 h. […]

Data set [1] in a line: pH stability, residual antimicrobial activity. It is filed as physicochemical. The conditions noted are these: for Residual activity (%), pH 2.0: pH 2.0 (10 mM HCl or NaOH). As to the method:
(§1) Sensitivity of purified peptides toward temperature, pH, and non-specific proteases was confirmed by performing bioassays. The pH stability was determined by adjusting the pH 2.0–12.0 of peptide aliquots (using 10 mM HCl or NaOH) and incubating for 4 h at room temperature. Samples were neutralized to pH 7.0 before processing for antimicrobial assay. To determine temperature susceptibility, peptides were incubated at different temperatures ranging from 37 to 100°C for 1 h and 121°C for 15 min and residual antimicrobial activity was determined at RT by well diffusion assay. Proteolytic enzymes trypsin and proteinase K (Sigma, United States) were used at three different concentrations (0.1, 1.0, and 5.0 mg/ml) to observe their effect on the peptide. The enzyme solutions were prepared in 50 mM phosphate buffer (pH 7.0). All reactions were performed at 37°C for 6 h followed by deactivation of enzyme by heating the solution in boiling water for 5 min before performing the activity assay.

In another data set the target is T1, proteinase K (Parengyodontium album, UniProt P06873).
T1 construct: purchased Sigma, United States
Briefly: Sensitivity to proteolytic enzyme, residual antimicrobial activity. It is filed as in vitro ADME. The conditions noted are these: 6h/ 37°C, enzyme 0.1, 1.0 and 5.0 mg/ml in 50 mM phosphate buffer pH 7.0, enzyme deactivated in boiling water 5 min. As to the method: as §1

The test system of another data set is rabbit blood cells. Put plainly: Hemolysis assay. In kind it is cell-based, New Zealand white rabbit. As for the experimental part: For hemolysis assay blood was collected from New Zealand white rabbit, centrifuged, washed three times, and resuspended in phosphate-buffered saline (PBS). Cells were counted using hemocytometer (adjusted to 2 × 10^8 cells/ml) and treated with different concentrations of peptides (between 10 and 200 μg/ml). They were incubated in a CO2 incubator for 24 h at 37°C and processed to observe release of hemoglobin as described earlier ([Singh et al., 2014]). PBS and 0.1% Triton X-100 were used as agents for 0 and 100% hemolysis, respectively.

A further data set concerns S. aureus MTCC 1430. Put plainly: TLC overlay bioautography. It is filed as cell-based, Staphylococcus aureus. The conditions noted are these: ∼10^6 cells/ml, 24 h at 37°C. As to the method:
Purified antimicrobial peptides were analyzed on TLC plates (Silica gel 60 F254, Merck, Germany) and used to determine the purity and antimicrobial activity of the compound by bioautographic assay ([Zheng et al., 2005]). About 50–60 μl of the peptide solution (100 μg/ml concentration) was loaded onto individual TLC silica gel plates in duplicates and were developed using a solvent system containing chloroform: […]: water (65:12:4 v/v). Subsequently, each TLC plate was dried, cut into two vertical parts, and one part of the TLC was used for direct detection of antimicrobial activity by overlaying on NA plate containing indicator strain (S. aureus MTCC 1430, ∼10^6 cells/ml). After allowing for 1 h of diffusion at 4°C, the TLC strip was removed and plates were incubated for 24 h at 37°C. The other part of TLC strip (5–10 μl of the peptide solution spot) was sprayed with ninhydrin and phosphomolybdic acid as a staining reagent to detect the presence of peptides and lipid moieties, respectively. Similarly, peptides were electrophoresed on 16% Tricine-SDS-PAGE and used for in-gel activity assay as described earlier ([Baindara et al., 2016]). S. aureus MTCC 1430 (∼10^6 cells/ml) was used as an indicator strain in assay.

T1 sequence (P06873 106-384): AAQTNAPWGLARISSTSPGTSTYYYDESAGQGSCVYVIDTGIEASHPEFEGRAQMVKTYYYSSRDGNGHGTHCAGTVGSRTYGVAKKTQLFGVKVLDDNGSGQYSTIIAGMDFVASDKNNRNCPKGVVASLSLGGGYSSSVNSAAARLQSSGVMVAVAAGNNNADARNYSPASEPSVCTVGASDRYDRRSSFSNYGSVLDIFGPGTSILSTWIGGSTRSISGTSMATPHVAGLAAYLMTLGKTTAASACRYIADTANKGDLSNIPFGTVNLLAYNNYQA

Turning to “Glu^1-Leu/Ile^2-Leu^3-Val^4-Asp^5-Leu^6-Leu/Ile^7 and a β-OH hexadecane fatty acid chain (lariat or depsi) [Lipopeptide A52, cyclic surfactin-like lipopeptide, 7 amino acids and C16 β-hydroxy fatty acid, 1061.9 Da, from B. subtilis strain A52]”, the “MIC value, E. coli MTCC 1610” value in the data set with E. coli MTCC 1610 stood at 6 µg/mL. Further, the “Residual activity (%), pH 2.0” value is recorded as “Nil” in data set [1] (4h/ 25°C, neutralized to pH 7.0 before antimicrobial assay, listed as Lipopeptide) and “complete loss in activity” in data set [1] (4h/ 25°C, neutralized to pH 7.0 before antimicrobial assay, listed as surfactin-like lipopeptide). Moreover, the “Residual activity (%), pH 4.0” value in data set [1] (pH 4.0 (10 mM HCl or NaOH), 4h/ 25°C, neutralized to pH 7.0 before antimicrobial assay) stood at 100%. The “Residual activity (%), pH 6.0” value in data set [1] (pH 6.0 (10 mM HCl or NaOH), 4h/ 25°C, neutralized to pH 7.0 before antimicrobial assay) turned out to be 100%. Moreover, the “Residual activity (%), pH 7.0” value in data set [1] (pH 7.0, 4h/ 25°C) was determined as 100%. Besides, the “Residual activity (%), pH 8.0” value in data set [1] (pH 8.0 (10 mM HCl or NaOH), 4h/ 25°C, neutralized to pH 7.0 before antimicrobial assay) was 100%. The “Residual activity (%), pH 10.0” value in data set [1] (pH 10.0 (10 mM HCl or NaOH), 4h/ 25°C, neutralized to pH 7.0 before antimicrobial assay) is 100%. In addition, the “Residual activity (%), pH 12.0” value in data set [1] (pH 12.0 (10 mM HCl or NaOH), 4h/ 25°C, neutralized to pH 7.0 before antimicrobial assay) is “Nil”. Also, the “Residual activity (%), Proteinase k” value on proteinase K is 100%. Besides, in the data set with rabbit blood cells, the hemolytic activity result is “demonstrated hemolytic activity”. Also, the “inhibition in TLC based overlay bioautographic assay” value with S. aureus MTCC 1430 is recorded as “inhibited”.
